From patent publication US20140336182A1, “Aurora Kinase Modulators and Method of Use” (Amgen Inc., priority 2013, published 2014) come the findings set out here.

Data set [1] concerns HeLa cells. Nature of the data set: HeLa cell 24 hr ploidy assay (DNA content). As to conditions: 4N ploidy, average, read-out: 24h_4NPloidy EC50_IP (uM Avg). The data set is classed as cell-based. The gist of the method: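 HeLa cells (1×10^4/well, MEM+10% FBS) cultured 24 h, treated with serially diluted compounds (0.25% DMSO final), then fixed, permeabilized and stained with Hoechst 33342 (0.5 ug/ml). Imaging quantified % 4N and >4N cells; EC50 IP and EC50 transit derived from dose curves.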

A short description of data set [2]: Solubility in DMSO (observation in the synthesis). The data set is classed as physicochemical. As to conditions: DMSO at rt. On the procedure: The reaction was cooled to rt. Hexane was added to induce the product to precipitate out of the reaction mixture. The resulting red solid was filtered with an aid of hexane. LCMS confirmed that the solid was the product. The product was purified by performing a column chromatography on silica gel using 60:40 CH2Cl2:(90:10:1 CH2Cl2:MeOH:NH4OH). Yellow solid was obtained. LCMS confirmed product. […] MS Calcd for […]: [M]=472. Found: [M+H]=473.

For data set [3], the system named is HCT116 xenografts, a human colon carcinoma model. Nature of the data set: HCT116 xenograft model, tumor growth inhibition. The data set is classed as in vivo, athymic nude mice. Particulars: mice, p.o. The method, then:
Compounds of the present invention were evaluated in HCT116 xenografts, a human colon carcinoma model. […] These cells were grown as subcutaneous xenografts in female HSD (Harlan Sprague Dawley) athymic nude mice. Mice were implanted subcutaneously with 2×10^6 cells in matrigel on day 0. Treatment was initiated on day 10 with compounds of the invention at the indicated dosage p.o for 2 consecutive-days per week (intermittent schedule, such as 2 days on—5 days off) or 7-days (continuous schedule) per week, for a selected number of weeks. For example, in one study, animals were dosed with selected compound samples BID on an intermittent dosing paradigm of two days on and then 5 days off per week, for four weeks (four dosing cycles) at 15, 7.5, and 3.75 mg/kg. Tumor growth inhibition and body weights were measured throughout the study and compared to the vehicle control group. All groups were provided nutritional supplements on a daily basis throughout the study to maintain body weight. Terminal neutrophil counts were taken at the end of this study. Measures were made by ANOVA followed by Scheffe post hoc test using StatView software v5.0.1.
10 Flasks containing a total of 7.68×10^8 HCT 116 tumor cells were harvested for tumor cell implantation. HCT 116 cells were re-suspended to a cell concentration of about 2×10^7 cells/ml in serum-free McCoys 5A media+50% matrigel. Cell viability was measured to be about 99.3%.
Female Athymic Nude mice approximately 14 weeks of age (Harlan Sprague Dawley) were used for the experiment. […] On Day 9, tumor-bearing mice were measured and randomized into five groups (n=10). […] During the dosing period, mouse tumor volumes were measured with a digital caliper and weighed twice per week. Tumor volumes were calculated as follows: Tumor Volume (mm^3)=[(W^2 X L)/2] where width (W) is defined as the smaller of the 2 measurements and length (L) is defined as the larger of the 2 measurements.

The target in data set [4] is T1, AuroraB (Homo sapiens, UniProt Q96GD4).
T1 construct: 20 μL of AuroraB FL H is for a final volume of 41 μL; His
T1 sequence (Q96GD4 whole entry): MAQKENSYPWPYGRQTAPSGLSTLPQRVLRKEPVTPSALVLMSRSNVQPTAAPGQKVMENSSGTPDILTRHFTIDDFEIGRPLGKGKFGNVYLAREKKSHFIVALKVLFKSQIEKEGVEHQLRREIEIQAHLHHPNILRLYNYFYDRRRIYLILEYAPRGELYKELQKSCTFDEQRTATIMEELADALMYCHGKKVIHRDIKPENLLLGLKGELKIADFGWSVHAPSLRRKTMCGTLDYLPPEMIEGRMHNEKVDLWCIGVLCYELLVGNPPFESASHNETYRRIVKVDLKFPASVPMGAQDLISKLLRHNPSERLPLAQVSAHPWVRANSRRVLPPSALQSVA
Nature of the data set: AuroraB Homogeneous Time Resolved Fluorescent (HTRF) kinase assay. The data set is classed as biochemical. Particulars: average; read-out: AurB_IC50_IP (uM Avg).

For data set [5], the target named is T2, AuroraA-TPX2 (Homo sapiens, UniProt O14965).
T2 sequence (O14965 133-383 limits assumed): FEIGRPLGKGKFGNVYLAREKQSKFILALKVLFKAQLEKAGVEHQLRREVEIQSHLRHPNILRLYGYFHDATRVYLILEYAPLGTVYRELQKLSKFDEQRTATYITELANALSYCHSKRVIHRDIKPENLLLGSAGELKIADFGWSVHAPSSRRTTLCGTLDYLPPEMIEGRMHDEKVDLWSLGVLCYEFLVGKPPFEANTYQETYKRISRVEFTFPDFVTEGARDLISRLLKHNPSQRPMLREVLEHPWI
T2 sequence (Q9ULW0 1-43 partner limits assumed): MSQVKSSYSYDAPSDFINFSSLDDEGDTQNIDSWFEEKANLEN
Nature of the data set: AuroraA-TPX2 Homogeneous Time Resolved Fluorescent (HTRF) kinase assay.

Where [6] appears, read: read-out: AurA_IC50_IP (uM Avg), average.

Where two headings read alike, the source gives them in different places.

As to `COc1cnc2c(Nc3cnc(Nc4nnc(-c5ccccc5)c5ccccc45)nc3)ccnc2c1` [Example 36, N^5-(7-Methoxy-1,5-naphthyridin-4-yl)-N^2-(4-phenylphthalazin-1-yl)pyrimidine-2,5-diamine], the EC50 in data set [1] (Homo sapiens, HeLa) amounted to 0.326 µM. Further, in data set [2], the “solubility in DMSO” value is “slightly soluble”.

Regarding `COc1cnc2c(Sc3ccc(Nc4nnc(-c5ccccc5)c5ccccc45)cc3)ccnc2c1` [Example 207, N-(4-((7-(methyloxy)-1,5-naphthyridin-4-yl)thio)phenyl)-4-phenyl-1-phthalazinamine], in data set [1] (Homo sapiens, HeLa, HeLa cells), the EC50 was found to be 0.005 µM. The inhibition of tumor growth in data set [3] (5.0 mg/kg 2-day dosing scheduling QD) was found to be 67%.

For the compound `COc1ccc2c(Cc3ccc(Nc4nnc(-c5ccccc5)c5ccccc45)cc3)ccnc2c1` [Example 53, N-(4-((7-methoxyquinolin-4-yl)methyl)phenyl)-4-phenylphthalazin-1-amine], the IC50 in data set [4] amounted to 0.003 µM; in data set [5] (setting [6]), 0.153 µM. Further, the EC50 in data set [1] (Homo sapiens, HeLa, HeLa cells) amounted to 0.105 µM.

For the compound `Fc1cc(Nc2nnc(-c3ccc(Cl)cc3)c3ccccc23)ccc1Oc1ccnc2ccccc12` [compound 244], the IC50 in data set [4] amounted to 0.003 µM; in data set [5], 0.048 µM. Besides, the EC50 in data set [1] (Homo sapiens, HeLa, HeLa cells) was 0.04 µM.

For the compound “4-(4,5-dimethylthiophen-2-yl)-N-(4-(7-methoxy-1,5-naphthyridin-4-yloxy)phenyl)phthalazin-1-amine [Example 34]”, the IC50 came out at 0.01 µM in data set [4] and 0.013 µM in data set [5] (setting [6]). Also, the EC50 in data set [1] (HeLa cells) amounted to 0.062 µM.

As to “N-(5-(7-methoxy-1,5-naphthyridin-4-yloxy)pyridin-2-yl)-4-phenylphthalazin-1-amine [Example 54]”, the IC50 in data set [4] stood at 0.02 µM; in data set [5] (setting [6]) it was 0.176 µM. Further, the EC50 in data set [1] (HeLa cells) was determined as 0.028 µM.

On to `COc1cnc2c(Oc3ccc(Nc4nnc(-c5ccc6c(c5)OCO6)c5ccccc45)cc3)ccnc2c1` [Example 165, 4-(1,3-benzodioxol-5-yl)-N-(4-((7-(methyloxy)-1,5-naphthyridin-4-yl)oxy)phenyl)-1-phthalazinamine], for which the EC50 in data set [1] (Homo sapiens, HeLa, HeLa cells) amounted to 0.006 µM. Besides, the inhibition of tumor growth in data set [3] (2.5 mg/kg 2-day dosing scheduling BID) came to 63%.

As for `COc1cnc2c(Oc3ccc(Nc4nnc(-c5ccc(Cl)cc5)c5ccccc45)cc3)ccnc2c1` [Example 160, 4-(4-chlorophenyl)-N-(4-((7-(methyloxy)-1,5-naphthyridin-4-yl)oxy)phenyl)-1-phthalazinamine], the EC50 in data set [1] (Homo sapiens, HeLa) is 0.005 µM. Moreover, the inhibition of tumor growth in data set [3] (3.75 mg/kg 2-day dosing scheduling QD) came out at 86%.

`COc1cnc2c(Sc3ccc(Nc4nnc(N5CCC(OC)CC5)c5ccccc45)cc3)ccnc2c1` [compound 520]: the IC50 was found to be 0.017 µM in data set [4] and 0.027 µM in data set [5]. Besides, in data set [1] (Homo sapiens, HeLa, HeLa cells), the EC50 was determined as 0.004 µM.

On to `c1cnc2c(Sc3ccc(Nc4nnc(-c5ccc6c(c5)CCO6)c5ccccc45)cc3)ccnc2c1` [compound 445], for which, in data set [1] (Homo sapiens, HeLa, HeLa cells), the EC50 turned out to be 0.001 µM.

In the case of `COc1cc(OC)c2c(Sc3ccc(Nc4nnc(-c5cc(C)cs5)c5ccccc45)cc3)ccnc2c1` [compound 439], the EC50 in data set [1] (Homo sapiens, HeLa, HeLa cells) turned out to be 0.113 µM.

For the compound `Cc1noc(-c2cc3nccc(Oc4ccc(Nc5nnc(-c6ccc(Cl)cc6)c6ccccc56)cc4)c3s2)n1` [compound 286], the EC50 in data set [1] (Homo sapiens, HeLa, HeLa cells) is 0.088 µM.

`COc1ccc2c(Sc3ccc(Nc4nnc(-c5ccc(Cl)cn5)c5ccccc45)cc3)ccnc2c1` [compound 364]: in data set [1] (Homo sapiens, HeLa, HeLa cells), the EC50 was found to be 0.005 µM.

For the compound `COc1cnc2c(Sc3ccc(Nc4nnc(OCCC5CCCCN5)c5ccccc45)cc3)ccnc2c1` (stereo not shown) [Example 403, N-(4-(7-Methoxy-1,5-naphthyridin-4-ylthio)phenyl)-4-(2-(piperidin-2-yl)ethoxy)phthalazin-1-amine], the EC50 in data set [1] (Homo sapiens, HeLa, HeLa cells) was 0.037 µM.
